Measurements: patent US20240254119A1 (THIRD HARMONIC BIO, INC., priority 2022, published 2024)

Columns and labels:
[1] = target: T1, PDGFRα (Homo sapiens, UniProt P16234); experiment: Caliper biochemical assay, PDGFRα; settings: Table 6
T1 construct: purchased Millipore 14-467 (lot 26321_ACTI)
Procedure: (§1) Enzyme, substrate, and cofactors (ATP and Mn^2+) are combined in a well of a microtiter plate and incubated for 3 hours at 25° C. At the end of the incubation, the reaction is quenched by the addition of an EDTA-containing buffer. Substrate and product are separated electrophoretically using the microfluidic-based LabChip 3000 Drug Discovery System from Caliper Life Sciences* and quantitated by fluorescence intensity.
(§2) The substrate used in the CSF-1R and PDGFRα assay is FAM-[…]-CONH2 (FAM is carboxyfluorescein). Peptide should be >95% purity. The substrate for the KIT assay is FAM-[…]-NH2.
(§3) • 1. To a well of a 384-well plate add 5 μL of 2× enzyme buffer (or control) • 2. Add 100 nL of 100× compound. • 3. Add 5 μL of 2× substrate buffer. • 4. Incubate plate at 25° C. for 3 hours. • 5. Add 10 uL of […]. • 6. Read plate LabChip 3000 Drug Discovery System
(§4) • 3 hours at 25° C. where 100% Inhibitor: No enzyme.

[2] = Kinetic solubility assay; format: physicochemical; settings: kinetic solubility, 50 mM PB (pH 7.4), shaken 24 hours at RT
Method in brief: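 Concentration in the filtrate was determined by UPLC-UV or HPLC-UV with a standard curve. Before that, compound (10 mM DMSO stock) in 50 mM PB at pH 7.4 was agitated 24 h at room temperature, then PTFE-filtered with centrifugation.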

[3] = target: T2, CSF-1R (Homo sapiens, UniProt P07333); experiment: Caliper biochemical assay, CSF-1R; settings: Table 6
T2 construct: purchased Invitrogen PV3249 (lot 662393N)
T2 sequence (P07333 20-972): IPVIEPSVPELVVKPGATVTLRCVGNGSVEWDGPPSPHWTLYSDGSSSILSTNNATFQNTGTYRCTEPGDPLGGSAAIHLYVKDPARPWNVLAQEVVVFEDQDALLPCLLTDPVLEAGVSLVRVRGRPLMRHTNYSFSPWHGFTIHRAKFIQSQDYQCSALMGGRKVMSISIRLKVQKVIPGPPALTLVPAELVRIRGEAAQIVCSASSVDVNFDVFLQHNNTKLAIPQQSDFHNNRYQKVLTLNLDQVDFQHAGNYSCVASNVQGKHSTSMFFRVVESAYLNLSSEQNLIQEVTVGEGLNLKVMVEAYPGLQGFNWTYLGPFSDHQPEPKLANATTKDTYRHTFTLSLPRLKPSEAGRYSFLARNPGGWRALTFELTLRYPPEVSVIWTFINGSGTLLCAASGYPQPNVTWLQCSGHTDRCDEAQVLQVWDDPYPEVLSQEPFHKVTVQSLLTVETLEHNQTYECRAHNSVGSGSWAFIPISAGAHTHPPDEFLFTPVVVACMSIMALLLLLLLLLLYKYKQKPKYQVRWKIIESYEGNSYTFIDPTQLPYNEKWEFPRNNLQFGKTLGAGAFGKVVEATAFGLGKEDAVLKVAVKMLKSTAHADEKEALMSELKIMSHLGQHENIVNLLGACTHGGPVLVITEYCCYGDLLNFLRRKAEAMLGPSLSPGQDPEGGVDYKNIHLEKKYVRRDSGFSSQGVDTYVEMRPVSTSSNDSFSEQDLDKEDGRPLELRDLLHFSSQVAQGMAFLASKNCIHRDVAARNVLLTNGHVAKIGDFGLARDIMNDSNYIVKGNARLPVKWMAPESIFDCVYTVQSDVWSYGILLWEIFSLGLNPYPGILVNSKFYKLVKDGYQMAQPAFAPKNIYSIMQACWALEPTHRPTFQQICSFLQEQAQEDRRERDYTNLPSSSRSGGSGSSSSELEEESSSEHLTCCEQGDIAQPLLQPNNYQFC
Procedure: as §1, §2, §3, §4

[4] = target: T3, wtKIT (Homo sapiens, UniProt P10721); experiment: Caliper biochemical assay, wtKIT; settings: Table 6, read-out: KIT Biochemical IC50 avg
T3 construct: 1888289AM in the reaction mixtures
T3 sequence (P10721 26-976): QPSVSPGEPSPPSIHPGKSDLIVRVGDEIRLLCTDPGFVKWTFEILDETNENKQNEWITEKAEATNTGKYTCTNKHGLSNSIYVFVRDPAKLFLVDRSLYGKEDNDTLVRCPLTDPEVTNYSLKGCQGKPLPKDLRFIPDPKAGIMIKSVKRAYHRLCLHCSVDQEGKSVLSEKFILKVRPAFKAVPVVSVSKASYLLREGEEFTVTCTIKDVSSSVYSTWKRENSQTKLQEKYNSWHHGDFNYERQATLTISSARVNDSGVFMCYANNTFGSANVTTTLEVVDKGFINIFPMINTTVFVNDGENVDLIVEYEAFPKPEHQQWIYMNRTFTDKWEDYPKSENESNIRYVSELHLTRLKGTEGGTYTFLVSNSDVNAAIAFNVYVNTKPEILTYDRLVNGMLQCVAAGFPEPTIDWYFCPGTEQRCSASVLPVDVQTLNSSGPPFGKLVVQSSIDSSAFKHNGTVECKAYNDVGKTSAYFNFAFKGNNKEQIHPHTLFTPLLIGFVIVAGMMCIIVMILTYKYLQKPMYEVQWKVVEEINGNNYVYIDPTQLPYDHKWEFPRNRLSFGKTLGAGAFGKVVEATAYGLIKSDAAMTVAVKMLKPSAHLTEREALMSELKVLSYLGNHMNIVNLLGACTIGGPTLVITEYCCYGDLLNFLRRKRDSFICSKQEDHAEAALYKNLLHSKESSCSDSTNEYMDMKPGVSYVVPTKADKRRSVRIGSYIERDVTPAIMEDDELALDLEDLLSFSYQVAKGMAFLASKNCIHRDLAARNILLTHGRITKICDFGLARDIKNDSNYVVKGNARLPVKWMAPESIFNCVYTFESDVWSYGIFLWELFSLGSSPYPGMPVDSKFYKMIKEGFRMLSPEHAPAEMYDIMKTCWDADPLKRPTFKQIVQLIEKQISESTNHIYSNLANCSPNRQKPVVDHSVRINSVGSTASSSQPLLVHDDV
Procedure: as §1, §2, §3, §4
• 100 mM HEPES, pH 7.5 0.1% BSA • 0.01% Triton X-100 • 1 mM DTT • 10 mM MnCl2 • 10 μM Sodium Orthovanadate • 10 μM Beta-Glycerophosphate • 400 μM ATP • 1% DMSO (from compound) • 1 μM FAM-[…]-CONH2 5.0 nM wtKIT Enzyme (1888289AM)* • *Specific activity may vary from lot to lot. Enzyme concentration may need to be adjusted to yield 10-20% conversion of substrate to product.

T1 sequence (P16234 24-1089): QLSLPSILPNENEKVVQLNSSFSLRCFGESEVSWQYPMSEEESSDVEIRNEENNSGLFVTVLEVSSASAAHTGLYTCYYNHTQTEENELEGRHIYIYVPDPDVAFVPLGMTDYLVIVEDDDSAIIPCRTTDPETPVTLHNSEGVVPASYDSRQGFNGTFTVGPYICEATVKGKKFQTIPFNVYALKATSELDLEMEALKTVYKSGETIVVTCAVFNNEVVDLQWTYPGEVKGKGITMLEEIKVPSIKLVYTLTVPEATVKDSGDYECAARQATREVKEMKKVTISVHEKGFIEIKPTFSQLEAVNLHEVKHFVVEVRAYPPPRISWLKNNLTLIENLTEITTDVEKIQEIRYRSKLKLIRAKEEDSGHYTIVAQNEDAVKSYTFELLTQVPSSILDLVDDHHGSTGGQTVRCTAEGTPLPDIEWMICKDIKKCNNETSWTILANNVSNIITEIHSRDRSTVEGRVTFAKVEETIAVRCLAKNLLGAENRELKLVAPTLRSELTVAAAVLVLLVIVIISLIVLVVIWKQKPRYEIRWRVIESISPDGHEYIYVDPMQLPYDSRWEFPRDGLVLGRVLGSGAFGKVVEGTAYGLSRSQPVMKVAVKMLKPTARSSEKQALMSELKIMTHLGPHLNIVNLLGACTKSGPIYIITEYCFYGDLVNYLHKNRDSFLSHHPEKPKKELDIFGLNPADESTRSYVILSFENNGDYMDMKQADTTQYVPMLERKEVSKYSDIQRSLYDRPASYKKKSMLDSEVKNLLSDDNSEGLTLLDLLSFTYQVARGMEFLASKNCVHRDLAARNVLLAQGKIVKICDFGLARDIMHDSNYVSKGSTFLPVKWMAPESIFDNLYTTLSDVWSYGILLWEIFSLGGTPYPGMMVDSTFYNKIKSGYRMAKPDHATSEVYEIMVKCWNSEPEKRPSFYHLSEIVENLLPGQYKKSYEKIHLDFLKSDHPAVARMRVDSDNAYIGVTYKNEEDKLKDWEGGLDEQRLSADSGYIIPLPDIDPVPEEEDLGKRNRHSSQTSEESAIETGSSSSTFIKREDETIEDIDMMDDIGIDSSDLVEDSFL

Cc1ccc(-c2noc(C3CCN3CCOC(F)(F)F)n2)cc1NC(=O)c1cnc2ccccn12 (racemic) [Compound I-168]
IC50 [1]: 500 to 5000 nM
Solubility (μM) [2]: ** (a solubility greater than 10 μM and less than or equal to 50 μM)
IC50 [3]: 50 to 500 nM
IC50 [4]: ≤ 50 nM

Cc1ccc(-c2noc(C3CCCCN3S(C)(=O)=O)n2)cc1NC(=O)c1cnc2ccccn12 (racemic) [Compound I-174]
IC50 [1]: 50 to 500 nM
Solubility (μM) [2]: *** (a solubility greater than 2 μM and less than or equal to 10 μM)
IC50 [3]: ≤ 50 nM
IC50 [4]: 50 to 500 nM

Cc1ccc(-c2noc([C@@H]3CCN3C3CC3)n2)cc1NC(=O)c1cnc2ccccn12 (racemic) [Compound I-177]
IC50 [1]: 50 to 500 nM
Solubility (μM) [2]: **** (a solubility less than or equal to 2 μM)
IC50 [3]: 50 to 500 nM
IC50 [4]: ≤ 50 nM

Cc1ccc(-c2noc([C@@H]3CCN3CC(F)(F)F)n2)cc1NC(=O)c1cnc2ccccn12 (racemic) [Compound I-178]
IC50 [1]: 50 to 500 nM
Solubility (μM) [2]: **** (a solubility less than or equal to 2 μM)
IC50 [3]: ≤ 50 nM
IC50 [4]: ≤ 50 nM

COCCN1CC[C@H]1c1nc(-c2ccc(C)c(NC(=O)c3cnc4ccccn34)c2)no1 (racemic) [Compound I-179]
IC50 [1]: 5000 to 30000 nM
Solubility (μM) [2]: * (a solubility greater than 50 μM)
IC50 [3]: 500 to 5000 nM
IC50 [4]: 50 to 500 nM

CCN1CC[C@H]1c1nc(-c2ccc(C)c(NC(=O)c3cnc4ccccn34)c2)no1 (racemic) [Compound I-180]
IC50 [1]: 500 to 5000 nM
Solubility (μM) [2]: * (a solubility greater than 50 μM)
IC50 [3]: 50 to 500 nM
IC50 [4]: ≤ 50 nM

Cc1ccc(-c2noc([C@H](C)NS(=O)(=O)c3cnn(C)c3)n2)cc1NC(=O)c1cnc2ccccn12 (racemic) [Compound I-181]
IC50 [1]: 500 to 5000 nM
Solubility (μM) [2]: * (a solubility greater than 50 μM)
IC50 [3]: ≤ 50 nM
IC50 [4]: ≤ 50 nM

Cc1ccc(-c2noc(CC(O)C(F)(F)F)n2)cc1NC(=O)c1cnc2ccccn12 (racemic) [Compound I-183]
IC50 [1]: 5000 to 30000 nM
Solubility (μM) [2]: **** (a solubility less than or equal to 2 μM)
IC50 [3]: 50 to 500 nM
IC50 [4]: 50 to 500 nM

Cc1ccc(-c2noc([C@@H]3CCC(F)(F)CN3)n2)cc1NC(=O)c1cnc2ccccn12 (racemic) [Compound I-198]
IC50 [1]: 500 to 5000 nM
Solubility (μM) [2]: *** (a solubility greater than 2 μM and less than or equal to 10 μM)
IC50 [3]: 50 to 500 nM
IC50 [4]: ≤ 50 nM

Cc1ccc(-c2noc(C3CCN3S(C)(=O)=O)n2)cc1NC(=O)c1cnc2ccccn12 (racemic) [Compound I-356]
IC50 [1]: 500 to 5000 nM
Solubility (μM) [2]: ** (a solubility greater than 10 μM and less than or equal to 50 μM)
IC50 [3]: 50 to 500 nM
IC50 [4]: ≤ 50 nM
